# Measurements from US6399599B1, “Substituted 2-oxo-1,4-diazacycloalkanes” (Novartis AG, priority 1999, dated 2002).
# Tested on: allergic contact dermatitis (oxazolone, elicitation phase)
# Test: Allergic contact dermatitis (ACD), oxazolone
# Format: in vivo
# Conditions: female NMRI mice, 24 h after challenge
# Description: ii) Allergic Contact Dermatitis (ACD)
# Groups of 8 female NMRI mice are sensitized on the shaved abdomen with 50 —l of oxazolone (Sigma, 2% in acetone) and challenged with 10 —l of 0.2 or 2.0% oxazolone on the inner surface of the right ear 7 days later. The low concentration of oxazolone for induction of the elicitation phase is used for testing compounds on […] whereas the high concentration is applied for […] testing. The unchallenged left ears serve as normal controls and dermatitis is evaluated from the individual differences in pinnal weight, which is taken as a measure of increase in inflammatory swelling 24 h after the challenge. Dermatitis is evaluated in test- and for comparison in control groups. The test groups are treated with the test compounds either orally (twice, 2 h and immediately before challenge), subcutaneously (immediately before challenge) or topically (30 min after challenge at the site of elicitation of the ACD); the controls are treated similarly with the vehicles alone. […] The data of the test-and the vehicle-treated control groups are statistically analysed by ANOVA followed by Dunnet T-test (normal distribution or data) or by H and U-test, respectively. […]
smiles,measurement,setting,value
"C[C@@H]1CCN([C@H](Cc2cccc3ccccc23)C(N)=O)C(=O)[C@H](c2ccccc2)N1C(=O)Cc1ccc2ncccc2c1 [Example 3, (R)-2-[(3S,5R)-5Methyl-2-oxo-3-phenyl-4-(quinolin-6-yl-acetyl)-[1,4]diazepan-1-yl]-3-(naphthalen-1-yl)-propionamide]",inhibiting effect in allergic contact dermatitis (pinnal weight),applied topically at a dose of 10 mM,50%
same,inhibiting effect in allergic contact dermatitis (pinnal weight),p.o. at a dose of 2×3 mg/kg,40%
